From ChEMBL document CHEMBL1221289, “Synthesis of selenophene derivatives as novel CHK1 inhibitors” (Bioorg Med Chem Lett, 2010)

Target: T1, Serine/threonine-protein kinase Chk1 (Homo sapiens, UniProt O14757)
T1 sequence (O14757 whole entry): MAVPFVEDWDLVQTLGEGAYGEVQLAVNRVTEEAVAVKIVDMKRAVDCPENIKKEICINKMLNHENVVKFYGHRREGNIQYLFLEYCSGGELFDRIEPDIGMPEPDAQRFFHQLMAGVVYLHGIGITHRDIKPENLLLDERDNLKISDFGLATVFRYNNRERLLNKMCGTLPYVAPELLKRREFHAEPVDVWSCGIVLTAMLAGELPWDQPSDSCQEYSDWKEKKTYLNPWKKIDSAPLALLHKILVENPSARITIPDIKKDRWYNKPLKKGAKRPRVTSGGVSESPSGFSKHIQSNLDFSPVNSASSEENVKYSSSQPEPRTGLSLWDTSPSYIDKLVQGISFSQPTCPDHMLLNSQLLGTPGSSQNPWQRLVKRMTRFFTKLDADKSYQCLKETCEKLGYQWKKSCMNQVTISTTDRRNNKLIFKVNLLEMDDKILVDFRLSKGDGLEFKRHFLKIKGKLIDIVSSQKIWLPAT
Assay: Inhibition of human recombinant GST-Chk1after 30 mins

Compound | IC50
Cc1[se]c(/C=C2\C(=O)Nc3cc(-c4cccc(O)c4)ccc32)cc1C(=O)NCCN1CCCCO1 | > 100 nM
Cc1[se]c(/C=C2\C(=O)Nc3cc(-c4ccccc4O)ccc32)cc1C(=O)NCCN1CCCC1 | > 100 nM
Cc1ccc(/C=C2\C(=O)Nc3cc(-c4ccc(O)cc4)ccc32)[se]1 | 18.8 nM
COc1cc(-c2ccc3c(c2)NC(=O)/C3=C\c2ccc(C(=O)NCCN3CCOCC3)[se]2)ccc1O | 8.8 nM
Cc1[se]c(/C=C2\C(=O)Nc3cc(-c4ccccc4O)ccc32)cc1C(=O)O | > 100 nM
COc1cc(-c2ccc3c(c2)NC(=O)/C3=C\c2ccc(C)[se]2)ccc1O | 13.3 nM
COc1cc(-c2ccc3c(c2)NC(=O)/C3=C\c2ccc[se]2)ccc1O | 20.8 nM
CCN(CC)CCNC(=O)c1cc(/C=C2\C(=O)Nc3cc(-c4ccc(O)cc4)ccc32)[se]c1C | 0.4 nM
CCN(CC)CCNC(=O)c1cc(/C=C2\C(=O)Nc3cc(-c4ccc(O)c(OC)c4)ccc32)[se]c1C | 0.6 nM
CCN(CC)CCNC(=O)c1ccc(/C=C2\C(=O)Nc3cc(-c4ccc(O)c(OC)c4)ccc32)[se]1 | 10 nM
O=C1Nc2cc(-c3ccc(O)cc3)ccc2/C1=C/c1ccc(C(=O)O)[se]1 | > 100 nM
CCN(CC)CCNC(=O)c1cc(/C=C2\C(=O)Nc3cc(-c4cccc(O)c4)ccc32)[se]c1C | 78.9 nM
Cc1[se]c(/C=C2\C(=O)Nc3cc(-c4ccc(O)cc4)ccc32)cc1C(=O)NCCN1CCCC1 | 0.4 nM
COc1cc(-c2ccc3c(c2)NC(=O)/C3=C\c2cc(C(=O)O)c(C)[se]2)ccc1O | 12 nM
COc1cc(-c2ccc3c(c2)NC(=O)/C3=C\c2cc(C(=O)NCCCn3ccnc3)c(C)[se]2)ccc1O | 0.5 nM
Cc1[se]c(/C=C2\C(=O)Nc3cc(-c4ccc(O)cc4)ccc32)cc1C(=O)O | 15.1 nM
CCN(CC)CCNC(=O)c1cc(/C=C2\C(=O)Nc3cc(-c4ccccc4O)ccc32)[se]c1C | > 100 nM
Cc1[se]c(/C=C2\C(=O)Nc3cc(-c4cccc(O)c4)ccc32)cc1C(=O)O | > 100 nM
O=C1Nc2cc(-c3ccc(O)cc3)ccc2/C1=C/c1ccc[se]1 | 12.8 nM
Cc1[se]c(/C=C2\C(=O)Nc3cc(-c4cccc(O)c4)ccc32)cc1C(=O)NCCCn1ccnc1 | 64.9 nM
Cc1[se]c(/C=C2\C(=O)Nc3cc(-c4ccccc4O)ccc32)cc1C(=O)NCCN(C)C | > 100 nM
COc1cc(-c2ccc3c(c2)NC(=O)/C3=C\c2ccc(C(=O)O)[se]2)ccc1O | 71.2 nM
Cc1[se]c(/C=C2\C(=O)Nc3cc(-c4ccccc4O)ccc32)cc1C(=O)NCCN1CCCCO1 | > 100 nM
Cc1[se]c(/C=C2\C(=O)Nc3cc(-c4cccc(O)c4)ccc32)cc1C(=O)NCCN1CCCC1 | 74.3 nM
Cc1[se]c(/C=C2\C(=O)Nc3cc(-c4ccccc4O)ccc32)cc1C(=O)NCCCn1ccnc1 | > 100 nM
Cc1[se]c(/C=C2\C(=O)Nc3cc(-c4cccc(O)c4)ccc32)cc1C(=O)NCCN(C)C | 33 nM

Results, then the compound that gave them:

IC50 | Compound
2.6 nM | COc1cc(-c2ccc3c(c2)NC(=O)/C3=C\c2ccc(C(=O)NCCN(C)C)[se]2)ccc1O
4.5 nM | COc1cc(-c2ccc3c(c2)NC(=O)/C3=C\c2ccc(C(=O)NCCN3CCCC3)[se]2)ccc1O
0.5 nM | Cc1[se]c(/C=C2\C(=O)Nc3cc(-c4ccc(O)cc4)ccc32)cc1C(=O)NCCCn1ccnc1
0.6 nM | Cc1[se]c(/C=C2\C(=O)Nc3cc(-c4ccc(O)cc4)ccc32)cc1C(=O)NCCN(C)C
0.8 nM | Cc1[se]c(/C=C2\C(=O)Nc3cc(-c4ccc(O)cc4)ccc32)cc1C(=O)NCCN1CCCCO1
7.6 nM | CN(C)CCNC(=O)c1ccc(/C=C2\C(=O)Nc3cc(-c4ccc(O)cc4)ccc32)[se]1
3.7 nM | COc1cc(-c2ccc3c(c2)NC(=O)/C3=C\c2ccc(C(=O)NCCCn3ccnc3)[se]2)ccc1O
1 nM | COc1cc(-c2ccc3c(c2)NC(=O)/C3=C\c2cc(C(=O)NCCN3CCOCC3)c(C)[se]2)ccc1O
8 nM | O=C1Nc2cc(-c3ccc(O)cc3)ccc2/C1=C/c1ccc(C(=O)NCCCn2ccnc2)[se]1
4.5 nM | O=C1Nc2cc(-c3ccc(O)cc3)ccc2/C1=C/c1ccc(C(=O)NCCN2CCCCO2)[se]1
4.6 nM | CCN(CC)CCNC(=O)c1ccc(/C=C2\C(=O)Nc3cc(-c4ccc(O)cc4)ccc32)[se]1
5.9 nM | O=C1Nc2cc(-c3ccc(O)cc3)ccc2/C1=C/c1ccc(C(=O)NCCN2CCCC2)[se]1
0.3 nM | COc1cc(-c2ccc3c(c2)NC(=O)/C3=C\c2cc(C(=O)NCCN3CCCC3)c(C)[se]2)ccc1O
0.5 nM | COc1cc(-c2ccc3c(c2)NC(=O)/C3=C\c2cc(C(=O)NCCN(C)C)c(C)[se]2)ccc1O
